Laboratory results reported in publication PMC539285, “Anti-Plasmodium activity of ceramide analogs” (Malaria Journal, 2004).

What was measured:
[1] = test system: chloroquine-resistant strain FcB1 of P. falciparum; assay: Anti-Plasmodium activity, [3H]hypoxanthine microdilution on asynchronous cultures; assay type: cell-based, Plasmodium falciparum; conditions: Plasmodium falciparum; strain FcB1, asynchronous cultures, n = 3; read-out: IC50
Experimental: P. falciparum strains (FcB1/Colombia, K1/Thailand, F32/Tanzania, W2/Indochina) were maintained in continuous culture on human erythrocytes in RPMI medium containing 7% (v/v) heat-inactivated human serum under an atmosphere of 3% CO2, 6% O2, 91% N2, at 37°C, as described by Trager and Jensen. Parasite synchronization was performed successively by treatment with 5% (w/v) sorbitol and by concentration in gelatin solution as previously described.
Drug susceptibility assays were performed using a modification of the semi automated microdilution technique of Desjardins et al.. Stock solutions of test compounds were prepared in DMSO. Drug solutions were serially diluted twofold with 100 μl culture medium in 96-well plates. Asynchronous parasite cultures (100 μl, 1 % parasitemia and 1 % final hematocrite) were added to each well and incubated for 24 hours at 37°C prior to the addition of 0.5 μCi of [^3H] hypoxanthine (Amersham, France, 1 to 5 Ci.mmol/ml) per well. After a further incubation of 24 hour, plates were frozen and thawed. Cell lysates were then collected onto glass-filter papers and counted in a liquid scintillation spectrometer. The growth inhibition for each drug concentration was determined by comparison of the radioactivity incorporated in the treated culture with that in the control culture (having the same final % of DMSO) maintained on the same plate. The concentration causing 50% growth inhibition (IC50) and 90% growth (IC90) were obtained from the drug concentration-response curve and the results were expressed as the means ± the standard deviations determined from several independent experiments.

[2] = Cytotoxicity test upon human embryonic cells (MTT); assay type: cell-based; conditions: human, MRC-5 human diploid embryonic lung cells; MRC-5, five days, MTT; mean of three experiments
Experimental: (§1) A human diploid embryonic lung cell line (MRC-5, Bio-Whittaker 72211D) was used to assess the cytotoxic effects towards eukaryotic host cells. MRC-5 cells were seeded at 5,000 cells per well in 100 μl. After 24 hours, the cells were washed and two-fold dilutions of the drug were added in 200 μl standard culture medium (RPMI medium + 5% fetal calf serum) and maintained for five days under 5% CO2 atmosphere. The final DMSO concentration in the culture remained below 0.1%. Untreated cultures were included as controls. The cytotoxicity was determined using the colorimetric MTT assay according to the manufacturer's recommendations (Cell proliferation kit I, Roche Applied Science, France) and scored as a percentage of reduction in absorption at 540 nm of treated cultures versus untreated control cultures. […] The results were expressed as the mean ± the standard deviations determined from several independent experiments. The index of selectivity was defined as the ratio of the IC50 value on MRC-5 to that of P. falciparum.

human MRC-5 cells = assay: Cytotoxicity test upon human embryonic cells (MTT); assay type: cell-based; conditions: Homo sapiens, MRC5, 120 h; MRC-5, five days, MTT; mean of three experiments
Experimental: as §1

[3] = test system: tubovesicular network of P. falciparum; assay: Tubovesicular network formation, BODIPY-FL-C5-ceramide fluorescence microscopy; assay type: cell-based, Plasmodium falciparum
Experimental: Infected erythrocytes treated with or without ceramide analogs were incubated for 30 min, at 37°C, in culture medium containing 10 μM BODIPY-FL-C5-ceramide, washed three times with culture medium without serum and fixed overnight, at 4°C, in 3.7% formaldehyde/0.05% glutaraldehyde. Cells were mounted on poly-L-lysine coated slides and viewed using a Nikon Eclipse TE 300 DV inverted microscope with an 100X oil objective mounted on a piezzo electric device using appropriate fluorescence emission filters. Image acquisition (z-series) was performed with a back illuminated cooled detector (CCD EEV: NTE/CCD-1024-EB, Roper Scientific, France) using a 0.2 μm step. Data acquisition and image deconvolution process were performed with Metamorph software (Universal Imaging Corporation, Roper Scientific, France). The images presented correspond to the maximum intensity projection of the deconvoluted z-series.

[4] = test system: P. falciparum synchronized cultures; assay: Parasite stage-specific inhibitory effects and reversibility (Giemsa-stained smears); assay type: cell-based, Plasmodium falciparum; conditions: rings, 24 hours incubation with 5 μM, then drug removal (data not shown)
[5] = test system: malaria-induced anion channel; assay: Malaria-induced anion channel activity, whole-cell patch-clamp; assay type: cell-based, Plasmodium falciparum; conditions: infected erythrocytes, 24 hours, 250 nM AD2646 or 10 μM PPMP, whole-cell patch-clamp (unpublished data)
Description: Sphingolipids preferentially interact with cholesterol in membranes, especially in detergent-resistant microdomains (DRMs or rafts). Rafts have been described in Plasmodium and are involved, at least, in the uptake of erythrocyte raft proteins and maintenance of the parasitophorous vacuole containing the parasite, inside the erythrocyte. This interaction implies : 1) van der Waals interactions between the saturated acyl chain and sphingoid moiety of sphingolipids and the rigid planar tetracyclic rings of cholesterol and 2) hydrogen bonds between the 3-β hydroxyl group of cholesterol and the fatty acyl carbonyl group resulting from the amide linkage with the sphingoid moiety. The amide-linked fatty acid function seems to have a profound stabilizing effect on cholesterol-sphingolipid interactions. It could be hypothesized that in a membrane context, methylene analogs might have a destabilizing effect on the cholesterol-sphingolipid interactions and, in consequence, modifications of membrane properties. Indeed, P. falciparum growth is characterized by a setting up of new permeabilities of the infected-erythrocyte membrane. Although the biochemical nature of these new permeabilities is still unknown, they have been characterized from an electrophysiological point of view and involve a malaria-induced anion channel. […]

[6] = test system: P. falciparum sphingomyelin synthase activity; assay: Sphingomyelin synthase activity assay in trophozoite cultures (NBD-C6-ceramide); assay type: cell-based, Plasmodium falciparum; conditions: trophozoites 20-30 h, 0-500 μM drug, 10 μM NBD-C6-ceramide, 60 min, 37°C
Experimental: SPM synthase activity was measured as described by Haldar et al.. Briefly, assays were performed on P. falciparum cultures at the trophozoite stage (20–30 h old parasites). 400 μl of culture (1 × 10^8 parasites) were incubated for 60 min at 37°C with 10 μM NBD-C6-ceramide and 0 to 500 μM PPMP or AD2646. Cells were then lysed by freezing and thawing of the culture. Lipids were extracted by a modification of the method of Bligh and Dyer. To each sample, three volumes of a CH3OH/CHCl3 mixture (1:2, v:v) were added and the mixture vortexed for one min. Organic and aqueous phases were separated by centrifugation (12,000 × g, five min) and the organic phase was dried. Lipids were dissolved in 15 μl ethanol and analysed by thin layer chromatography on HPTLC plates (Silica gel 60 F254, Merck, Darmstadt, Germany) in CH3OH/[…]/NH4OH (75:25:4, v:v:v). For qualitative analyses, the fluorescent lipids were detected under UV and for quantitative analyses, the fluorescent lipid spots were scraped, eluted in one ml methanol and quantified at an excitation of 470 nm and an emission of 530 nm in a spectrofluorometer. The percentage of SPM synthase activity for each drug concentration was determined by comparison of the fluorescence quantified in the analog-treated culture with that in the control culture (without drug).

P. falciparum = test system: P. falciparum; set-up: method as in PMID 7568097; conditions: synchronized cultures at the ring stage; read-out: IC50 previously reported; cited from earlier work

CCCCCCCCCCCCCCCC(=O)NC(CN1CCOCC1)C(O)c1ccccc1 (stereo not drawn) [PPMP, d,1-threo-1-phenyl-2-palmitoylamino-3-morpholino-1-propanol, reference compound]
IC50 [1]: 9 ± 1.7 µM | IC90 at 5 days [2]: 12.4 µM | IC50 (human MRC-5 cells): 7.5 µM | TVN formation ([3]; rings incubated 24 hours with 60 nM AD2646 or 5 μM PPMP): no TVN was observed | ring development ([3]; rings, 24 hours, 5 μM): totally inhibited | reversibility of ring-stage block [4]: recovered to a normal growth after drug removal | induced anion channel activity [5]: did not modulate significantly the induced channel activity | inhibition of SPM synthase activity (shape of curve) [6]: biphasic inhibition curve | IC50 (P. falciparum): 0.85 µM
